Reference: patent US20100204224A1, “AZACYCLIC COMPOUNDS AS INHIBITORS OF SENSORY NEURONE SPECIFIC SODIUM CHANNELS” (priority 2005, published 2010)

Biological target: T1, human Nav1.8 (hNav1.8) ion channel (Homo sapiens, UniProt Q9Y5Y9)
T1 construct: expressed in transfected cells
Assay: Inhibition of human Nav1.8 stably expressed in SH-SY-5Y cells (membrane potential dye fluorescence assay)
Type: cell-based
Settings: SH-SY-5Y hNav1.8 cells; FLIPR membrane potential dye; 10 μM pyrethroid, 250 nM TTX; test concentration range 100 μM-0.05 μM; read-out: hNav1.8 IC50

T1 sequence (Q9Y5Y9 whole entry): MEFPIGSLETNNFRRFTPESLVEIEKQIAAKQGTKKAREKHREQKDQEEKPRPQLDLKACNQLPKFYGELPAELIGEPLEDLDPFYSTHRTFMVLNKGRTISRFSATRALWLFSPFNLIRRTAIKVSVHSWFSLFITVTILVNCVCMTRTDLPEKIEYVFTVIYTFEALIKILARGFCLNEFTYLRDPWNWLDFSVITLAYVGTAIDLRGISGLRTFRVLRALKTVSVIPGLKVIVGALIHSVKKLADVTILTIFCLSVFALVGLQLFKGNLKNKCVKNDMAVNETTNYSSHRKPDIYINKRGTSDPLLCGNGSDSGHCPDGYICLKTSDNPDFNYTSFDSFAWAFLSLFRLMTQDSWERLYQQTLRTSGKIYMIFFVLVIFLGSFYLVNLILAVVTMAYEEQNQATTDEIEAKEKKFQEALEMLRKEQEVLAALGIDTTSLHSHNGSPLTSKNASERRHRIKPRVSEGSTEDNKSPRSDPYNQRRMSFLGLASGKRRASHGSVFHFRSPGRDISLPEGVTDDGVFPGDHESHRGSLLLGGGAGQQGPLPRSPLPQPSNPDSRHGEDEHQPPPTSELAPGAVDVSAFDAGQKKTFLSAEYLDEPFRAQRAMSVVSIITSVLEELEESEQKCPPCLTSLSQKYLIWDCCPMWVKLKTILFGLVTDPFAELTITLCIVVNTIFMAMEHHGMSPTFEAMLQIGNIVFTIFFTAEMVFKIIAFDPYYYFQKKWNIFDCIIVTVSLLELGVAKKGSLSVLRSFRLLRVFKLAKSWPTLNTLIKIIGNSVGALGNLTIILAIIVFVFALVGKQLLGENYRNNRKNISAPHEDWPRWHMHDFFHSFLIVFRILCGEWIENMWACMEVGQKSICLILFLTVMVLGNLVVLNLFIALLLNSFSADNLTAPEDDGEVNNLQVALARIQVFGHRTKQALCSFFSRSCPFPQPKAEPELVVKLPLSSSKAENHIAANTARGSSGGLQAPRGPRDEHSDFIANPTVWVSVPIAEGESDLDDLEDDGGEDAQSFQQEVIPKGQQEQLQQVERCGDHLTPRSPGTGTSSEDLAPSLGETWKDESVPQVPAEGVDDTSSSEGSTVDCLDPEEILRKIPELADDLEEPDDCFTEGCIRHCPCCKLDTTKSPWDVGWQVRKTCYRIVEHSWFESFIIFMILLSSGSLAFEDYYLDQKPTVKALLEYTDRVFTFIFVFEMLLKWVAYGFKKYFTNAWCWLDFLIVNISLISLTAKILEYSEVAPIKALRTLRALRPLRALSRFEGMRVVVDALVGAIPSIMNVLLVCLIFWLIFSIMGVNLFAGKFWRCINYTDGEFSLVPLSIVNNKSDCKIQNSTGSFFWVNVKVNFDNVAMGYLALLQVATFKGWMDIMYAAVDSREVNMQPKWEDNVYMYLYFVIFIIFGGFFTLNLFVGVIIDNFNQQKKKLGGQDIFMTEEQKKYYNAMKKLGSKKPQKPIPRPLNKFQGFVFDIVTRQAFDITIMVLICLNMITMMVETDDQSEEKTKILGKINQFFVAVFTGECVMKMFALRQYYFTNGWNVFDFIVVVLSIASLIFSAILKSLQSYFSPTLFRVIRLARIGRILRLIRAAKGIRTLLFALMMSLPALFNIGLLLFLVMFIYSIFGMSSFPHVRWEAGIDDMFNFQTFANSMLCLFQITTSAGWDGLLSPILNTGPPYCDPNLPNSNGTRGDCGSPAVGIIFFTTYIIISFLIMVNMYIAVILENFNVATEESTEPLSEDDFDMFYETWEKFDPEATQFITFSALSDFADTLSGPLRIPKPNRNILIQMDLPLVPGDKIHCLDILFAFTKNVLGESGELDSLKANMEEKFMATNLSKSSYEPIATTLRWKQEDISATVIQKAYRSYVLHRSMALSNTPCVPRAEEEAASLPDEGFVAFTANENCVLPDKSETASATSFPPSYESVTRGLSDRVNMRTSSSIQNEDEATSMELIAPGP

Row | SMILES | IC50
1 | CC(c1ccc(Cl)cc1Cl)N1CC2CC1CN2C(=O)Nc1ccc(Oc2ccc(Cl)cc2)cc1 (stereo not drawn) [Example 122, 5-[1-(2,4-Dichloro-phenyl)-ethyl]-2,5-diaza-bicyclo[2.2.1]heptane-2-carboxylic acid [4-(4-chloro-phenoxy)-phenyl]-amide] | 19.2 µM
2 | CC(c1ccccc1Cl)N1CC2CC1CN2C(=O)N(C)c1ccc(Oc2ccc(F)cc2)cc1 (stereo not drawn) [Example 115, 5-[1-(2-Chloro-phenyl)-ethyl]-2,5-diaza-bicyclo[2.2.1]heptane-2-carboxylic acid [4-(4-fluoro-phenoxy)-phenyl]-methyl-amide] | 1.98 µM
3 | Cc1ccccc1C(C)N1CC2CC1CN2C(=O)Nc1ccc(C(=O)c2ccccc2)cc1 (stereo not drawn) [Example 66, 5-(1-o-Tolyl-ethyl)-2,5-diaza-bicyclo[2.2.1]heptane-2-carboxylic acid (4-benzoyl-phenyl)-amide] | 0.72 µM
